These results are taken from paper PMC9500072, “Topical application of an irreversible small molecule inhibitor of lysyl oxidases ameliorates skin scarring and fibrosis” (Nature Communications, 2022).

For data set [1], the system named is primary dermal fibroblasts. Put plainly: Procollagen I FRET measurement, scar-in-a-jar. The settings on record: highest dose (10 µM). Type of data set: cell-based, human.
Data set [2] in a line: Stability in cream formulations. Type of data set: physicochemical.
Data set [3] has as its target Adenosine A3 (Homo sapiens, UniProt P0DMS8). The experiment in a line: Eurofins panel 200720. Type of data set: binding.
For data set [4], the target named is Bradykinin B1 (Homo sapiens, UniProt P46663). Put plainly: Eurofins panel 212510. Type of data set: binding.
Data set [5] has as its target Bradykinin B2 (Homo sapiens, UniProt P30411). Put plainly: Eurofins panel 212620. Type of data set: binding.
Data set [6] concerns Calcium Channel L-Type, Benzothiazepine. Put plainly: Eurofins panel 214510. Type of data set: binding, rat. To be noted: 10 µM.
Data set [7] concerns the target Calcium Channel N-Type (Rattus norvegicus, UniProt Q02294). The experiment in a line: Eurofins panel 216000. Type of data set: binding.
The target in data set [8] is Endothelin ETB (Homo sapiens, UniProt P24530). Put plainly: Eurofins panel 224110. Type of data set: binding.
Endothelin ETB, sequence (P24530 27-442): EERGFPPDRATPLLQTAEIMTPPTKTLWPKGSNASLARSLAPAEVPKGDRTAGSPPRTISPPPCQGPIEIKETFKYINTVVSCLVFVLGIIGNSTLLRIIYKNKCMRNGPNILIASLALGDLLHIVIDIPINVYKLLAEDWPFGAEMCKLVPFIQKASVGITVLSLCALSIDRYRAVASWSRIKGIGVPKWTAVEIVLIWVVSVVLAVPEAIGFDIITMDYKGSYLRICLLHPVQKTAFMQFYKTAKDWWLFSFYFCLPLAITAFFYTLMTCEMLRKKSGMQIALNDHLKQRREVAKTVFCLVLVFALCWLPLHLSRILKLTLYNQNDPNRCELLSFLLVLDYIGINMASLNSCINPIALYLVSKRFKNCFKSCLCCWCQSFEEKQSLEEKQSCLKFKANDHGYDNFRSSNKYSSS
Data set [9] concerns the target Estrogen ERα (Homo sapiens, UniProt P03372). The experiment in a line: Eurofins panel 226010. Type of data set: binding.
Data set [10] deals with GABAB1A (Homo sapiens, UniProt Q9UBS5). Put plainly: Eurofins panel 228610. Type of data set: binding.
The target in data set [11] is Histamine H3 (Homo sapiens, UniProt Q9Y5N1). Put plainly: Eurofins panel 239820. Type of data set: binding.
Data set [12] addresses Interleukin IL-1 (Mus musculus, UniProt P13504). Put plainly: Eurofins panel 243520. Type of data set: binding.
For data set [13], the target named is Neuropeptide Y Y1 (Homo sapiens, UniProt P25929). Put plainly: Eurofins panel 257010. Type of data set: binding.
Neuropeptide Y Y1, sequence (P25929 whole entry): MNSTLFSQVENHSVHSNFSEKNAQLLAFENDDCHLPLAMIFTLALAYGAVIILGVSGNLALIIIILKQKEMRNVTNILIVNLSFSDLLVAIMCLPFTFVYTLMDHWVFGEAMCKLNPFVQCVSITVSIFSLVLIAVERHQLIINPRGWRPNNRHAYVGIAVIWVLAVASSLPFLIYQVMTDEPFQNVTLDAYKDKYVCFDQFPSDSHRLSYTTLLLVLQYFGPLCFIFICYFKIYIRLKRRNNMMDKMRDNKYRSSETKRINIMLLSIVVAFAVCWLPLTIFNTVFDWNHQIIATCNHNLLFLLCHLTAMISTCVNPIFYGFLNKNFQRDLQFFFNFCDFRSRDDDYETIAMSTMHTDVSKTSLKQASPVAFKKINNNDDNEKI
Data set [14] deals with Nicotinic Acetylcholine. Put plainly: Eurofins panel 258590. Type of data set: binding, human. To be noted: 10 µM.
Data set [15] addresses Potassium Channel [KATP] (Cricetus cricetus, UniProt Q09427). Put plainly: Eurofins panel 265600. Type of data set: binding, ham. From the text:
PXS-4787 competes with a model substrate (putrescine) for the LOX binding site (Fig. 2d). The allylamine of PXS-4787 interacts with the co-factor of the enzyme and elicits mechanism-based inhibition (Fig. 2e). Through careful optimization, and in contrast to BAPN, PXS-4787 selectivity targets lysyl oxidases and is neither an inhibitor of, nor a substrate for, related oxidases (Fig. 2f, g and Supplementary Table S1). Furthermore, PXS-4787 was clean when profiled in a broad panel of macromolecular targets using enzyme and radioligand binding assays (LeadProfilingScreen, Eurofins CEREP Panlabs, 68 assays, test concentration 10 µM; Supplementary Data S1).

Data set [16] concerns the target hERG potassium channel (Homo sapiens, UniProt Q12809). Put plainly: Eurofins panel 265900. Type of data set: binding.
The target in data set [17] is Sigma σ1 (Homo sapiens, UniProt Q99720). Put plainly: Eurofins panel 278110. Type of data set: binding.
Sigma σ1, sequence (Q99720 whole entry): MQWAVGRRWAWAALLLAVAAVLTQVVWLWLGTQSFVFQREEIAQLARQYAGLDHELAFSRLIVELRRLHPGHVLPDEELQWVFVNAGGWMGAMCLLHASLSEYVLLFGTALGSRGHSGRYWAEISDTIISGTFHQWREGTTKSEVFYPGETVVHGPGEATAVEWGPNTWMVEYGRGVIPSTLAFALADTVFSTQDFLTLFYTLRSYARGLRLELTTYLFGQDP
Data set [18] has as its system Thyroid Hormone. The experiment in a line: Eurofins panel 285900. Type of data set: binding, rat. The settings on record: 10 µM.
The nature of data set [19]: Rat pharmacokinetic-pharmacodynamic model, skin concentration. To be noted: topical; for concentration at 24 h after the last dose: 24 h after last dose; for concentration at 24 h: 500 mg on 16 cm^2, 24 h. Type of data set: in vivo. The method, then: PXS-6302 was formulated as an oil in water cream of different concentrations (0, 0.3, 1, 10%) and applied to a shaved area on the back of a rat (500 mg cream applied to 16 cm^2). After 24 h animals were sacrificed, the concentration of PXS-6302 in the skin was measured and the lysyl oxidase activity determined.
To investigate the effect of repeat dosing, cream at different concentrations (0, 0.5, 1, and 3% PXS-6302, 400 mg applied to 16 cm^2) was applied once daily for 5 consecutive days and 24 h after the last dose, animals were sacrificed and the skin concentration determined.
PXS-6302 was formulated as an oil in water cream of different concentrations (0, 0.3, 1, 10%) and applied to a shaved area on the back of an adult rat (500 mg cream applied to 16 cm^2 skin surface area). After 24 h animals were euthanased. For the detection of lysyl oxidase activity in the skin, epidermal and dermal layers of the skin were dissected, pre-cooled with liquid nitrogen and pulverized. Samples were washed by homogenization with ice-cold wash buffer (0.15 M NaCl, 50 mM sodium borate, pH 8.0 with 0.25 mM PMSF and 1 µL/mL bovine aprotinin as protease inhibitors) at 100 µL/mg, centrifuged at 10,000 × g for 10 min at 4 °C and supernatant discarded. After the final washing step, the pellet was resuspended in extraction buffer (6 M urea, 50 mM sodium borate, pH 8.2 with 0.25 mM PMSF and 1 µL/mL aprotinin as protease inhibitors) with ratio of buffer volume to tissue weight at 4:1. After a 3 h incubation at 4 °C, the mixture was diluted 1:2 with assay buffer containing 50 mM sodium borate (pH 8.2), centrifuged at 20,000 × g for 20 min at 4 °C. The collected supernatant was spiked with pargyline hydrochloride and mofegiline hydrochloride at final concentrations of 0.5 mM and 1 µM, respectively, to inhibit amine oxidases. Lysyl oxidase activity was measured as previously described. The concentration of PXS-6302 in the skin was also measured in the same samples using LCMSMS as described for Franz cell diffusion assay.

The subject of data set [20] is deep-dermal contact burn scar. Put plainly: Porcine burn injury model with tensile strength testing. Type of data set: in vivo, pig.
Data set [21] addresses Cholinesterase, Acetyl, ACES (Homo sapiens, UniProt P22303). The experiment in a line: Eurofins panel 104010. Type of data set: biochemical.
The target in data set [22] is Cyclooxygenase COX-1 (Homo sapiens, UniProt P23219). Put plainly: Eurofins panel 116020. Type of data set: biochemical.
Cyclooxygenase COX-1, sequence (P23219 24-599): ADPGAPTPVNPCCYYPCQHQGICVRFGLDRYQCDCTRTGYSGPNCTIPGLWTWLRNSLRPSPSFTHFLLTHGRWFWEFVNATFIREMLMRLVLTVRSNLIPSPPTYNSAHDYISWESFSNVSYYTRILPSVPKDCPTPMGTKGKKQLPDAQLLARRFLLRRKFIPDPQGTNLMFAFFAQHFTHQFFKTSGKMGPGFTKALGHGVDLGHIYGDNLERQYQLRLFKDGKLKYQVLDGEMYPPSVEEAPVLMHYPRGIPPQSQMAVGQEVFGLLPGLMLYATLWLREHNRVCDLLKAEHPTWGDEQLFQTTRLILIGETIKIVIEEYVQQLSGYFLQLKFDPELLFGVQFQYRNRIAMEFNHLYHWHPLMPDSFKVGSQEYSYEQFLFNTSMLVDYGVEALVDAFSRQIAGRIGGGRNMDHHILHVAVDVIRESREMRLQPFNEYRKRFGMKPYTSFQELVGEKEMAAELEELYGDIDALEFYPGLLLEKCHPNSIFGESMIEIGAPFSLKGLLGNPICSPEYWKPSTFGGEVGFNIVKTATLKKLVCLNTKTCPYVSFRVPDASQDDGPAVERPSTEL
The target of data set [23] is Monoamine Oxidase MAO-A (Homo sapiens, UniProt P21397). The experiment in a line: Eurofins panel 140010. Type of data set: biochemical.
Monoamine Oxidase MAO-A, sequence (P21397 whole entry): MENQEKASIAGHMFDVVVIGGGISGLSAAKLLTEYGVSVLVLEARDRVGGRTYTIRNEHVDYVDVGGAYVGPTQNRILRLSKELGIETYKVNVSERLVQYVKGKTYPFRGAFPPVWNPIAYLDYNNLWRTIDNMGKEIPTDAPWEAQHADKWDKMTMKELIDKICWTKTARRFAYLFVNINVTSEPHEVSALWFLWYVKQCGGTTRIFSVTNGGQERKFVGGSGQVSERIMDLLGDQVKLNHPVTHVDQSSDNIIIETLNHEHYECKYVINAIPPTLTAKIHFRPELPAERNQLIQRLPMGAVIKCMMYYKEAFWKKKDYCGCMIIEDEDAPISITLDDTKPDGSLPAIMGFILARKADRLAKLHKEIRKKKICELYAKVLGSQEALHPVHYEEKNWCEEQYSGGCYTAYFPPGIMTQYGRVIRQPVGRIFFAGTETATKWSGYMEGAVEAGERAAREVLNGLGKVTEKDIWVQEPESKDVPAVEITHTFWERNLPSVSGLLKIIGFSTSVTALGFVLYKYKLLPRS
In data set [24] the target is Nicotinic Acetylcholine α1β2, Cytisine (Homo sapiens, UniProt P17787+P43681). Put plainly: Eurofins panel 299031. Type of data set: binding.
Data set [25] deals with Potassium Channel [KA]. The experiment in a line: Eurofins panel 265510. Type of data set: binding, rat. To be noted: 30 µM.
Data set [26] deals with Serotonin (5-Hydroxytryptamine) 5-HT1B (Homo sapiens, UniProt P28222). The experiment in a line: Eurofins panel 271230. Type of data set: binding.
Serotonin (5-Hydroxytryptamine) 5-HT1B, sequence (P28222 whole entry): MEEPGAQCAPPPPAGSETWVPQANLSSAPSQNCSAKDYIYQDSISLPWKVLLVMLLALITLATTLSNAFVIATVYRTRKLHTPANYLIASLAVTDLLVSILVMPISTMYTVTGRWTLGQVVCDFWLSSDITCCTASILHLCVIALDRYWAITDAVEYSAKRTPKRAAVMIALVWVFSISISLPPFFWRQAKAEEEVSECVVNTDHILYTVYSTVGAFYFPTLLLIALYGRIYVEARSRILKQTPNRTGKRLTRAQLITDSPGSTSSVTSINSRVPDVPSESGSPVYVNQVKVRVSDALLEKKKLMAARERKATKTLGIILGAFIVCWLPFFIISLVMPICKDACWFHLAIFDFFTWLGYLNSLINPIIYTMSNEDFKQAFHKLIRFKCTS

Estrogen ERα, sequence (P03372 whole entry): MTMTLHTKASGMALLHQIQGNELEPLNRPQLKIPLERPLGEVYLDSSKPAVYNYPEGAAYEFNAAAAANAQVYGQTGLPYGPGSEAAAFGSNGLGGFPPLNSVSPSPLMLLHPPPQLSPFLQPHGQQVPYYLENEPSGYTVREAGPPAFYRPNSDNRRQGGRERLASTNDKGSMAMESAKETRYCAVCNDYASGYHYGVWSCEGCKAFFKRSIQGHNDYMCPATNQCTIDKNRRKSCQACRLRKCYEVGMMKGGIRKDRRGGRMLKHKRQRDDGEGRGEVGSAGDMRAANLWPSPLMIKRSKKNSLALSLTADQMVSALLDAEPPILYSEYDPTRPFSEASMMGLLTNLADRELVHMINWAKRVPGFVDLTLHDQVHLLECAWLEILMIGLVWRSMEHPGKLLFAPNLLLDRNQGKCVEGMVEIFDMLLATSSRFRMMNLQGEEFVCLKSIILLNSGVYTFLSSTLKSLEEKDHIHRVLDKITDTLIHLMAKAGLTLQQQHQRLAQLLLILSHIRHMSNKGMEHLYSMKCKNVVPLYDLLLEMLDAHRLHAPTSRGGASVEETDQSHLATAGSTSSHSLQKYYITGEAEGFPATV
Cholinesterase, Acetyl, ACES, sequence (P22303 32-614): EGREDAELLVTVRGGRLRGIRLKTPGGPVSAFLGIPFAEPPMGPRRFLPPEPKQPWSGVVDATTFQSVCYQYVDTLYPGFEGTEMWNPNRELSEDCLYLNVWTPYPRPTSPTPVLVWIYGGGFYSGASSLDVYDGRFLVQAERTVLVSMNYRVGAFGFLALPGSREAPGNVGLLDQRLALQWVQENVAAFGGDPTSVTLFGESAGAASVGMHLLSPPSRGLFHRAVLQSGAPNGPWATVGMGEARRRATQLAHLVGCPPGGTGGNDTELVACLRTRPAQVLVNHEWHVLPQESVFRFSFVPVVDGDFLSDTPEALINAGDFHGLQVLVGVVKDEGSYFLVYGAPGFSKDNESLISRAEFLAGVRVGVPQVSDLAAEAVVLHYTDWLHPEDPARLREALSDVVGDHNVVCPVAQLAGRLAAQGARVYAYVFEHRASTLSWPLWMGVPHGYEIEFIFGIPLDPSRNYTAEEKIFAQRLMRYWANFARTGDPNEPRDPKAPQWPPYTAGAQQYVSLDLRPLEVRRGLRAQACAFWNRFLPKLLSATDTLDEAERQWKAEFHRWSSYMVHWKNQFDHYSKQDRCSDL
Adenosine A3, sequence (P0DMS8 whole entry): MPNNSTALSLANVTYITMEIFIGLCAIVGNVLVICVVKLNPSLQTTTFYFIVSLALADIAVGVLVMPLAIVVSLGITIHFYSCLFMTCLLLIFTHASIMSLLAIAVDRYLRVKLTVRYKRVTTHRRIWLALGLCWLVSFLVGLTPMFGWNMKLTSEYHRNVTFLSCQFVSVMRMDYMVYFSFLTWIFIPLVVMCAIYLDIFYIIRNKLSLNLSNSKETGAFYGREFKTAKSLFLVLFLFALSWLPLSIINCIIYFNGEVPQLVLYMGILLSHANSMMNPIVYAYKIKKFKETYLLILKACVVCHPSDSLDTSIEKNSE
Bradykinin B2, sequence (P30411 whole entry): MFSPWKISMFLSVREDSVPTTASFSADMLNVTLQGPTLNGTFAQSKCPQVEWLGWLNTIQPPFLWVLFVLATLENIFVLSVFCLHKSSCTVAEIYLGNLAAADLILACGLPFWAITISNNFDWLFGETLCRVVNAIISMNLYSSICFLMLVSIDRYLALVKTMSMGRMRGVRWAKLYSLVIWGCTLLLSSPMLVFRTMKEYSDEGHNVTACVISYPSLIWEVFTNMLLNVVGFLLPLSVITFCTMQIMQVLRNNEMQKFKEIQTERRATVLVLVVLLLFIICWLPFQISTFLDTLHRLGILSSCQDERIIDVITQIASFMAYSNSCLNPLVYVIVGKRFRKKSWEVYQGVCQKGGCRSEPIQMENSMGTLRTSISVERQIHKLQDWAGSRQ
Interleukin IL-1, sequence (P13504 20-576): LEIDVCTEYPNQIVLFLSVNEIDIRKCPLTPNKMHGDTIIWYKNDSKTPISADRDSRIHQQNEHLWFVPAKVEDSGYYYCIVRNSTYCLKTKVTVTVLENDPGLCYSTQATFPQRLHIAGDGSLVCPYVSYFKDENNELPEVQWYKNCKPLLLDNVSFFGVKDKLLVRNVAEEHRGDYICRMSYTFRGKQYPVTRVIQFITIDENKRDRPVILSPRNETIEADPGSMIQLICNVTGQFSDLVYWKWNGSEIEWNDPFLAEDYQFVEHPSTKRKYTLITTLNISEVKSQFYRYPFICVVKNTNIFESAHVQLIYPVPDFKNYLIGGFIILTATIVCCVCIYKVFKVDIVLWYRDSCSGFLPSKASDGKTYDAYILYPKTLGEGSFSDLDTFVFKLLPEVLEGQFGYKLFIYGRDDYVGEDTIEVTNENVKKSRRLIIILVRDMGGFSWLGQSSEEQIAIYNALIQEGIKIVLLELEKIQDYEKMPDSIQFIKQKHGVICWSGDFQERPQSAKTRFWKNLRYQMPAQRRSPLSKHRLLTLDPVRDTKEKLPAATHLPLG

Take `NC/C=C(\F)CS(=O)(=O)c1ccccc1` [PXS-4787]: the “collagen I production (soluble procollagen I)” value in data set [1] is “significant and sustained reduction”. Also, the “stability in cream formulations” value in data set [2] was “some unwanted degradation occurred”. The inhibition at 10 µM in data set [3] came to 4%; in [4] it was 6%; in data set [5], 5%; in [7], 0%; in [8], 3%; in data set [9], 3%. For the same molecule, the inhibition at 10 µM is 6% in data set [10]; -5% in data set [11]; 7% in data set [12]; 0% in data set [13]; 0% in data set [15]; 9% in data set [16]. Also, the inhibition at 10 µM in data set [17] was -10%. Further, the “% Inh.” value in [6] is reported as 24%; in data set [14], 1%; in data set [18], 0%.

As for `NC/C=C(\F)C(F)(F)S(=O)(=O)c1ccccc1` [PXS-6302], the concentration at 24 h after the last dose in [19] (400 mg of 0.5% cream on 16 cm^2, once daily for 5 days, 0.5% cream 400 mg once daily 5 days) is 4900 ± 800 ng/g; in data set [19] (400 mg of 1% cream on 16 cm^2, once daily for 5 days, 1% cream 400 mg once daily 5 days), 9300 ± 700 ng/g; in [19] (400 mg of 3% cream on 16 cm^2, once daily for 5 days, 3% cream 400 mg once daily 5 days), 31700 ± 3280 ng/g. The concentration at 24 h in data set [19] (500 mg of 0.3% cream on 16 cm^2, single dose 0.3% cream) was found to be 7900 ± 1500 ng/g; in [19] (500 mg of 1% cream on 16 cm^2, single dose 1% cream), 8900 ± 1400 ng/g; in data set [19] (500 mg of 10% cream on 16 cm^2, single dose 10% cream) it was 119000 ± 7800 ng/g. The “tensile strength, treated vs control scars” value in [20] (3% cream) is “no significant differences”. Further, the “scar photo score by blinded plastic surgeons vs placebo” value in data set [20] (3% cream once daily from re-epithelialisation to 2 months post-injury) is listed as “significantly better”. The “treated scars with lower Young's modulus than matched vehicle treated scar” value in data set [20] (3% cream, p = 0.15) was 5/6. The inhibition at 30 µM was 2% in data set [21]; 36% in [22]; 10% in [23]; -2% in data set [24]; -3% in [26]. The “% Inh.” value in [25] is 2%.

For orientation: inhibition means the change of the read-out against control, counted positive when it falls.
